Some test systems named below: SNB-75 CNS; A549 NSCLC; NCI-H23 lung; IGROV1 ovarian; NCI-H522 lung; OVCAR-8 ovarian; EKVX NSCLC; HCC-2998 colon; OVCAR-3 ovarian; SK-MEL-5 melanoma; A498 renal; UACC-62 melanoma; U251 CNS; HL-60(TB) leukemia; M14 melanoma; PC-3 prostate; MDA-MB-231 breast; HS 578T breast; DU-145 prostate; T-47D breast.
Holding throughout (test): NCI-60 cell line screen, 48 h

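Results reflect a 48-hour exposure of cells in 96-well plates to compound at five concentrations. TGI marks complete inhibition of growth.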

As to `[N-]=[N+]=NC1(Cc2ccccc2)C(=O)Nc2ccccc2C1=O` (stereo unspecified), the TGI in the test on SNB-75 CNS, with A549 NSCLC, in the test on NCI-H23 lung, in the test with IGROV1 ovarian, with NCI-H522 lung and in the test on OVCAR-8 ovarian was more than 100 µM each time. For the same compound, the TGI in the test on EKVX NSCLC, with HCC-2998 colon, in the test on OVCAR-3 ovarian, in the test on SK-MEL-5 melanoma, in the test on A498 renal and in the test with UACC-62 melanoma was more than 100 µM throughout. Further, the TGI in the test on U251 CNS, with HL-60(TB) leukemia and in the test with M14 melanoma was more than 100 µM each time.

`CC(C)(C)OC(=O)NC(Cc1ccc(OC(C)(C)C)cc1)C(=O)N[C@H]1CC[C@H](C(=O)O)C1` (stereo partly specified): the TGI in the test with SNB-75 CNS, with A549 NSCLC, in the test with NCI-H23 lung, with IGROV1 ovarian, in the test with PC-3 prostate and in the test on NCI-H522 lung was more than 100 µM throughout. Further, the TGI in the test with OVCAR-8 ovarian, with EKVX NSCLC, with MDA-MB-231 breast, in the test on HCC-2998 colon, in the test with HS 578T breast and in the test with SK-MEL-5 melanoma was more than 100 µM throughout. The TGI in the test on A498 renal, with U251 CNS, with HL-60(TB) leukemia, in the test with DU-145 prostate and in the test on M14 melanoma was more than 100 µM each time.

In the case of `Cc1cc(C(O)CCCc2ccccc2)cc(C)c1O` (stereo unspecified), the TGI in the test with SNB-75 CNS was 78 µM; in the test with A549 NSCLC, more than 100 µM; in the test on NCI-H23 lung, more than 100 µM; with IGROV1 ovarian, more than 100 µM; in the test on NCI-H522 lung, more than 100 µM; with OVCAR-8 ovarian, more than 100 µM. The TGI is 75.9 µM in the test on EKVX NSCLC; more than 100 µM in the test on HCC-2998 colon; more than 100 µM with OVCAR-3 ovarian; 48.9 µM in the test with SK-MEL-5 melanoma; 81.3 µM in the test with A498 renal; more than 100 µM in the test on UACC-62 melanoma. In addition, the TGI is more than 100 µM with U251 CNS, 41.9 µM with HL-60(TB) leukemia and more than 100 µM in the test on M14 melanoma.

Consider `CCOC(=O)CCCc1cc(=O)c2c(C)c3[nH]c4ccc(Cl)cc4c3c(C)c2[nH]1`, for which the TGI with SNB-75 CNS is 64 µM; with A549 NSCLC, 43.5 µM; in the test with NCI-H23 lung, more than 100 µM; with IGROV1 ovarian, 86.4 µM; with PC-3 prostate, 70.6 µM; with OVCAR-8 ovarian it was 59.8 µM. Also, the TGI with EKVX NSCLC was more than 100 µM; in the test with MDA-MB-231 breast, 69.7 µM; in the test with HCC-2998 colon, more than 100 µM; in the test with OVCAR-3 ovarian it was 34.4 µM; with SK-MEL-5 melanoma it was 49.2 µM; with A498 renal it was 36.5 µM. For the same compound, the TGI was 50.5 µM in the test on U251 CNS, 82.3 µM in the test with HL-60(TB) leukemia, 57.2 µM with DU-145 prostate and more than 100 µM in the test with M14 melanoma.

With `CC(=O)c1ccc(NC(=O)C(=O)CC(=O)c2sc(-n3nc(-c4ccccc4)cc3-c3ccccc3)nc2C)cc1`, the TGI in the test with A549 NSCLC, in the test on NCI-H23 lung, with IGROV1 ovarian, with NCI-H522 lung, in the test on OVCAR-8 ovarian and with EKVX NSCLC was more than 100 µM throughout. The TGI with HCC-2998 colon, with OVCAR-3 ovarian, in the test with A498 renal, in the test on UACC-62 melanoma, with U251 CNS and in the test with HL-60(TB) leukemia was more than 100 µM throughout. In addition, the TGI with M14 melanoma was more than 100 µM.

In the case of `Cc1cc(N(CCC#N)CCC#N)ccc1/C(Sc1ccccc1)=C(\NC(=O)/C=C/c1ccccc1)C(=O)Sc1ccccc1`, the TGI is 17.7 µM with SNB-75 CNS; 16 µM with A549 NSCLC; 11.2 µM in the test on NCI-H23 lung; 2.78 µM in the test with IGROV1 ovarian; 1.82 µM in the test with NCI-H522 lung; 18.6 µM with OVCAR-8 ovarian. In addition, the TGI in the test on EKVX NSCLC was 54.2 µM; in the test on HCC-2998 colon, 23.9 µM; with OVCAR-3 ovarian, 15.8 µM; with SK-MEL-5 melanoma, 16.3 µM; with A498 renal, 16.5 µM; in the test with UACC-62 melanoma, 12.3 µM. Further, the TGI in the test with U251 CNS was 5.83 µM; in the test on HL-60(TB) leukemia, 5.08 µM; with M14 melanoma it was 6.3 µM.

Take `Cc1c(N)c(C#N)c2n(C)c3ncccc3n2c1=O`: the TGI in the test on SNB-75 CNS, with A549 NSCLC, in the test with NCI-H23 lung, in the test on NCI-H522 lung, in the test with OVCAR-8 ovarian and in the test on EKVX NSCLC was more than 100 µM throughout. The TGI with HCC-2998 colon, in the test on OVCAR-3 ovarian, with SK-MEL-5 melanoma, with UACC-62 melanoma, in the test with U251 CNS and in the test on HL-60(TB) leukemia was more than 100 µM each time. The TGI in the test with M14 melanoma was more than 100 µM.

`CN1C(=O)C(O)CC1c1ccccc1F` (stereo unspecified): the TGI in the test with SNB-75 CNS, with A549 NSCLC, in the test with NCI-H23 lung, with IGROV1 ovarian, with PC-3 prostate and in the test on NCI-H522 lung was more than 100 µM in each case. The TGI in the test with OVCAR-8 ovarian, in the test on EKVX NSCLC, in the test with MDA-MB-231 breast, with HCC-2998 colon, in the test on OVCAR-3 ovarian and with SK-MEL-5 melanoma was more than 100 µM throughout. For the same compound, the TGI in the test on A498 renal, with UACC-62 melanoma, in the test with U251 CNS, in the test on HL-60(TB) leukemia, in the test with DU-145 prostate and in the test on M14 melanoma was more than 100 µM throughout.

For the compound `CC(=O)OC1CCn2c1nc1c2C(=O)C=C(N2CC2)C1=O` (stereo unspecified), the TGI in the test on SNB-75 CNS was 0.479 µM; with A549 NSCLC it was 6.25 µM; in the test on T-47D breast, 2.38 µM; in the test with NCI-H23 lung, 1.08 µM; in the test on IGROV1 ovarian, 1.88 µM; with PC-3 prostate, 2.52 µM. The TGI is 0.124 µM in the test with NCI-H522 lung; 1.57 µM in the test on OVCAR-8 ovarian; 2.39 µM in the test with EKVX NSCLC; 3.92 µM in the test on MDA-MB-231 breast; 3.07 µM in the test with HCC-2998 colon; 0.546 µM in the test with OVCAR-3 ovarian. In addition, the TGI in the test on SK-MEL-5 melanoma amounted to 0.305 µM; in the test with A498 renal, 0.613 µM; with UACC-62 melanoma, 0.214 µM; with U251 CNS, 0.853 µM; in the test with HL-60(TB) leukemia, 0.494 µM; in the test with DU-145 prostate it was 12.7 µM. Moreover, the TGI with M14 melanoma came out at 0.186 µM.

Values taken from PubChem BioAssay (NCI).
